The values that follow come from patent US7550510B2, “Solid phase synthesis of arylretinamides” (Wisconsin Alumni Research Foundation, priority 2001, dated 2009).

Data set [1] relates to MCF-7 cells. Kind of data set: Inhibition of growth of cultured MCF-7 cells (cell number 48 h after a single dose). Particulars: activity vs. 4-HPR standard. It counts as cell-based, human. The protocol: MCF-7 cells were maintained in DMEM supplemented as recommended by ATCC. Cells were plated (10,000/well) and dosed 24 h later dosed with the arylretinamide.
The test system of data set [2] is MCF-7 cells. Kind of data set: Induction of apoptosis in MCF-7 cells, TUNEL assay. Particulars: MCF-7 human breast cancer cell line, FIG. 4. Format: cell-based. An excerpt: When DNA strands are cleaved or nicked by nucleases, a large number of 3′-hydroxyl ends are exposed. In the TUNEL assay (terminal deoxynucleotidyl transferase dUTP nick end labeling), these ends are labeled with UTP using mammalian terminal deoxynucleotidyl transferase (TdT), which covalently adds labeled nucleotides to the 3′-hydroxyl ends of these DNA fragments in a template-independent fashion. The UTP is then detected using specific probes (e.g., you can incorporate BrdUTP and then use a fluorescent anti-BrdU antibody). The assay can be used on cells in situ or the cells can be analyzed by flow cytometry.
The ability of arylretinamides 1, 7, 10, 11, 18, 19, 27, 32, 33, 41, 42, and 44 to induce apoptosis in MCF-7 cells was determined using a TUNEL assay as described in Engeland, M V; Nieland, L J W; Ramackers, F C S; Schutte, B; Reutelingsperger, CPM Cytometry 1998, 31, 1, which is specifically incorporated by reference.

Setting [3] is: all at 10^−5 M, 48 hours after a single dose.

With `COC(=O)c1cc(NC(=O)/C=C(C)/C=C/C=C(C)/C=C/C2=C(C)CCCC2(C)C)ccc1O` [Compound 27, N-(4′-hydroxy-3′-carboxymethylphenyl)retinamide], the growth inhibition result in the data set on MCF-7 cells [1] (setting [3]) was “+ (+ = <50% the activity of standard)”.
Take `CC1=C(/C=C/C(C)=C/C=C/C(C)=C/C(=O)Nc2ccc(C)cc2O)C(C)(C)CCC1` [Compound 3, N-(2′-hydroxy-4′-methylphenyl)retinamide]: the melting point – broadly, the temperature, or range, at which the solid turns liquid – was 146 to 147.5 °C. In addition, the growth inhibition result in the data set with MCF-7 cells [1] (setting [3]) was “−”.
The compound `CC1=C(/C=C/C(C)=C/C=C/C(C)=C/C(=O)Nc2cc([N+](=O)[O-])ccc2O)C(C)(C)CCC1` [Compound 19, N-(2′-hydroxy-5′-nitrophenyl)retinamide] showed a melting point of 151.5 to 153 °C. Besides, the growth inhibition entry in the data set on MCF-7 cells [1] (setting [3]) was “++ (++ = >50% the activity of standard)”.
In turn, `CC1=C(/C=C/C(C)=C/C=C/C(C)=C/C(=O)Nc2ccccc2CO)C(C)(C)CCC1` [Compound 31, N-(2′-hydroxymethylphenyl)retinamide] showed a melting point of 72 to 74 °C.
Turning to `CC1=C(/C=C/C(C)=C/C=C/C(C)=C/C(=O)Nc2cc(Br)c(O)c(Br)c2)C(C)(C)CCC1` [Compound 14, N-(3′,5′-dibromo-4′-hydroxyphenyl)retinamide], in the data set with MCF-7 cells [1] (setting [3]), the growth inhibition result is “−”.
For the compound `CC1=C(/C=C/C(C)=C/C=C/C(C)=C/C(=O)Nc2cccc(C(=O)O)c2O)C(C)(C)CCC1` [Compound 21, N-(2′-hydroxy-3′-carboxyphenyl)retinamide], in the data set with MCF-7 cells [1] (setting [3]), the growth inhibition result was “−”.
On to `CC1=C(/C=C/C(C)=C/C=C/C(C)=C/C(=O)Nc2ccc(O)c(C(=O)O)c2)C(C)(C)CCC1` [Compound 28, N-(4′-hydroxy-3′-carboxyphenyl)retinamide], for which the growth inhibition result in the data set with MCF-7 cells [1] (setting [3]) was “−”.
Still for that read-out and setting: the result for `CC1=C(/C=C/C(C)=C/C=C/C(C)=C/C(=O)Nc2ccc(C(=O)O)cc2O)C(C)(C)CCC1` [Compound 22, N-(2′-hydroxy-4′-carboxyphenyl)retinamide] reads “−”.
In the case of `CC1=C(/C=C/C(C)=C/C=C/C(C)=C/C(=O)Nc2ccc(C)c(O)c2)C(C)(C)CCC1` [Compound 7, N-(3′-hydroxy-4′-methylphenyl)retinamide], the melting point lay in the range of 172.5 to 175 °C. In addition, the “inducing apoptosis of cells” value in the data set with MCF-7 cells [2] is listed as “effective at inducing apopotosis”. For the same compound, in the data set with MCF-7 cells [1] (setting [3]), the growth inhibition entry is on record as “+ (+ = <50% the activity of standard)”.
As to `CC1=C(/C=C/C(C)=C/C=C/C(C)=C/C(=O)Nc2cc(C)c(O)cc2C)C(C)(C)CCC1` [Compound 2, N-(4′-hydroxy-2′,5′-dimethylphenyl)retinamide], in the data set with MCF-7 cells [1] (setting [3]), the growth inhibition result is “−”.
Consider `CC1=C(/C=C/C(C)=C/C=C/C(C)=C/C(=O)Nc2cccc(O)c2C)C(C)(C)CCC1` [Compound 8, N-(3′-hydroxy-2′-methylphenyl)retinamide], for which the melting point fell in the range of 176 to 176.5 °C. For the same compound, the growth inhibition entry in the data set on MCF-7 cells [1] (setting [3]) was “−”.
For `CC1=C(/C=C/C(C)=C/C=C/C(C)=C/C(=O)Nc2ccc(O)c(Cl)c2)C(C)(C)CCC1` [Compound 11, N-(3′-chloro-4′-hydroxyphenyl)retinamide], the melting point is 168 to 169 °C. In addition, the “inducing apoptosis of cells” value in the data set with MCF-7 cells [2] was “effective at inducing apopotosis”. Moreover, the growth inhibition result with MCF-7 cells [1] (setting [3]) is listed as “+ (+ = <50% the activity of standard)”.
For `CC1=C(/C=C/C(C)=C/C=C/C(C)=C/C(=O)Nc2cc(C(C)(C)C)ccc2O)C(C)(C)CCC1` [Compound 5, N-(2′-hydroxy-5′-tert-butylphenyl)retinamide], the melting point is 144 to 146.5 °C. Also, in the data set with MCF-7 cells [1] (setting [3]), the growth inhibition entry is given as “−”.
For `CC1=C(/C=C/C(C)=C/C=C/C(C)=C/C(=O)Nc2cc(Cl)c(C)c(Cl)c2O)C(C)(C)CCC1` [Compound 15, N-(3′,5′-dichloro-2′-hydroxy-4′-methylphenyl)retinamide] the same measures were 140 to 142 °C and “−”.
The corresponding values for `CC1=C(/C=C/C(C)=C/C=C/C(C)=C/C(=O)Nc2ccc(O)cc2Cl)C(C)(C)CCC1` [Compound 10, N-(2′-chloro-4′-hydroxyphenyl)retinamide] are 131.5 to 132.5 °C and “−”.
As for `CC1=C(/C=C/C(C)=C/C=C/C(C)=C/C(=O)Nc2c(O)cccc2C(=O)O)C(C)(C)CCC1` [Compound 24, N-(2′-hydroxy-6′-carboxyphenyl)retinamide], in the data set with MCF-7 cells [1] (compound at 3.9 × 10^−6 M), the growth inhibition result is given as “−”.
`CC1=C(/C=C/C(C)=C/C=C/C(C)=C/C(=O)Nc2ccc([N+](=O)[O-])cc2O)C(C)(C)CCC1` [Compound 18, N-(2′-hydroxy-4′-nitrophenyl)retinamide] gave a melting point of 152 to 153.5 °C. The “inducing apoptosis of cells” value in the data set with MCF-7 cells [2] is listed as “effective at inducing apopotosis”. Also, the growth inhibition entry in the data set on MCF-7 cells [1] (setting [3]) was “++ (++ = >50% the activity of standard)”.
As for `CC1=C(/C=C/C(C)=C/C=C/C(C)=C/C(=O)Nc2ccc(O)cc2)C(C)(C)CCC1` [Compound 41, N-(4′-hydroxyphenyl)retinamide, reference compound], in the data set on MCF-7 cells [1] (setting [3]), the growth inhibition entry was “++ (++ = >50% the activity of standard)”.
`CCS(=O)(=O)c1ccc(NC(=O)/C=C(C)/C=C/C=C(C)/C=C/C2=C(C)CCCC2(C)C)c(O)c1` [Compound 30, N-(4′-ethylsulfonyl-2′-hydroxyphenyl)retinamide] yielded a melting point of 145 to 147 °C. Moreover, the growth inhibition entry with MCF-7 cells [1] (setting [3]) was “−”.
The compound `CC1=C(/C=C/C(C)=C/C=C/C(C)=C/C(=O)Nc2cc(C)ccc2O)C(C)(C)CCC1` [Compound 4, N-(2′-hydroxy-5′-methylphenyl)retinamide] gave a melting point of 98 to 100 °C. Besides, the growth inhibition result in the data set with MCF-7 cells [1] (setting [3]) is “−”.
With `COC(=O)c1cccc(NC(=O)/C=C(C)/C=C/C=C(C)/C=C/C2=C(C)CCCC2(C)C)c1O` [Compound 20, N-(2′-hydroxy-3′-carboxymethylphenyl)retinamide], in the data set on MCF-7 cells [1] (setting [3]), the growth inhibition entry was “−”.
Still for that read-out and setting: to `COC(=O)c1ccc(O)c(NC(=O)/C=C(C)/C=C/C=C(C)/C=C/C2=C(C)CCCC2(C)C)c1` [Compound 29, N-(2′-hydroxy-5′-carboxymethylphenyl)retinamide] belongs “−”.
In the case of `CCOc1ccc(NC(=O)/C=C(C)/C=C/C=C(C)/C=C/C2=C(C)CCCC2(C)C)cc1` [Compound 45, N-(4′-ethoxyphenyl)retinamide, reference compound], in the data set with MCF-7 cells [1] (compound at 7.4 × 10^−6 M), the growth inhibition entry is listed as “−”.
As for `CC1=C(/C=C/C(C)=C/C=C/C(C)=C/C(=O)Nc2ccc(C(=O)O)c(O)c2)C(C)(C)CCC1` [Compound 26, N-(3′-hydroxy-4′-carboxyphenyl)retinamide], the growth inhibition entry with MCF-7 cells [1] (setting [3]) is on record as “−”.
With `CC(C=CC1=C(C)CCCC1(C)C)=CC=CC(C)=CC(=O)Nc1ccccc1C(=O)O` [Compound 44, N-(2′-carboxyphenyl)retinamide, reference compound], the growth inhibition result in the data set with MCF-7 cells [1] (setting [3]) is recorded as “+ (+ = <50% the activity of standard)”.
The compound `CC1=C(/C=C/C(C)=C/C=C/C(C)=C/C(=O)Nc2cccc(CO)c2)C(C)(C)CCC1` [Compound 32, N-(3′ hydroxymethylphenyl)retinamide] gave a melting point of 118 to 120.5 °C. Further, the “inducing apoptosis of cells” value in the data set on MCF-7 cells [2] is recorded as “perhaps, 32 are effective at inducing apopotosis”. Also, in the data set with MCF-7 cells [1] (setting [3]), the growth inhibition entry is recorded as “+ (+ = <50% the activity of standard)”.
Consider `CC1=C(/C=C/C(C)=C/C=C/C(C)=C/C(=O)Nc2cc(Cl)ccc2O)C(C)(C)CCC1` [Compound 12, N-(5′-chloro-2′-hydroxyphenyl)retinamide], for which the melting point was in the range of 115 to 118 °C. Besides, the growth inhibition entry in the data set with MCF-7 cells [1] (setting [3]) is reported as “−”.
For `CC1=C(/C=C/C(C)=C/C=C/C(C)=C/C(=O)Nc2ccc(O)cc2[N+](=O)[O-])C(C)(C)CCC1` [Compound 16, N-(4′-hydroxy-2′-nitrophenyl)retinamide] the same measures were 112 to 117 °C and “−”.
`CC1=C(/C=C/C(C)=C/C=C/C(C)=C/C(=O)Nc2ccc(N)cc2)C(C)(C)CCC1` [Compound 33, N-(4′-aminophenyl)retinamide]: the growth inhibition entry in the data set on MCF-7 cells [1] (setting [3]) is “+ (+ = <50% the activity of standard)”.
For the compound `CC1=C(/C=C/C(C)=C/C=C/C(C)=C/C(=O)Nc2c(C)cccc2O)C(C)(C)CCC1` [Compound 6, N-(2′-hydroxy-6′-methylphenyl)retinamide], in the data set with MCF-7 cells [1] (setting [3]), the growth inhibition entry is reported as “−”.
On to `CC1=C(/C=C/C(C)=C/C=C/C(C)=C/C(=O)Nc2cc(Cl)c(O)c(Cl)c2)C(C)(C)CCC1` [Compound 13, N-(3′,5′-dichloro-4′-hydroxyphenyl)retinamide], for which the melting point fell in the range of 139 to 140 °C. Also, the growth inhibition entry in the data set on MCF-7 cells [1] (setting [3]) is on record as “−”.
For `COc1ccc(NC(=O)/C=C(C)/C=C/C=C(C)/C=C/C2=C(C)CCCC2(C)C)cc1O` [Compound 9, N-(3′-hydroxy-4′-methoxyphenyl)retinamide] the same measures were 119 to 124 °C and “−”.
Consider `CC1=C(/C=C/C(C)=C/C=C/C(C)=C/C(=O)Nc2ccc(O)c([N+](=O)[O-])c2)C(C)(C)CCC1` [Compound 17, N-(4′-hydroxy-3′-nitrophenyl)retinamide], for which the melting point lay in the range of 157 to 159.5 °C. In addition, in the data set on MCF-7 cells [1] (setting [3]), the growth inhibition entry is recorded as “−”.
The compound `CC1=C(/C=C/C(C)=C/C=C/C(C)=C/C(=O)Nc2ccc(O)cc2C)C(C)(C)CCC1` [Compound 1, N-(2′-methyl-4′-hydroxyphenyl)retinamide] returned a melting point of 141 to 145 °C. Moreover, in the data set on MCF-7 cells [2], the “inducing apoptosis of cells” value is “effective at inducing apopotosis”. For the same compound, the growth inhibition result in the data set on MCF-7 cells [1] (setting [3]) is “−”.
